Test results as given in patent EP0071535B1, “(4-(2 and/or 3-Thienylacetamido)-phenoxy)-hydroxyaminopropanes, their preparation, their therapeutic use and intermediates” (CARPIBEM (CENTRE D'ACTIVITE ET DE RECHERCHE PHARMACEUTIQUE …, priority 1981, dated 1983).

Legend:
[1] = tested on: effets β1 (augmentation de la force contractile du myocarde) de l'isoprénaline; assay: β-blocking activity: inhibition of the β1 effects of intravenous isoprenaline in anaesthetised dogs; assay type: in vivo, chiens; conditions: dog; for inhibition at 0.001 mg/kg / inhibition at 0.003 mg/kg / inhibition at 0.01 mg/kg / inhibition at 0.1 mg/kg: Canis lupus familiaris, iv, inhibition given with negative sign, read-out: % d'inhibition des effets β1^(+) de l'Isoprénaline; for inhibition at 0.001 mg/kg: 0,001 mg/kg I.V.; for inhibition at 0.003 mg/kg: 0,003 mg/kg I.V.; for inhibition at 0.01 mg/kg: 0,010 mg/kg I.V.; for inhibition at 0.1 mg/kg: 0,100 mg/kg I.V.
Description: (§1) Des chiens tout-venants mâles ou femelles sont anesthésiés au mébubarbital sodique (30 mg/kg I.V.) et ventilés artificiellement par une pompe Pesty RPP. Ils sont supplémentés en oxygène.
(§2) On mesure: • - la pression carotidienne systolique et diastolique • - la force contractile du myocarde.
(§3) Les signaux sont amplifiés et enregistrés sur Dynograph Beckman.
(§4) L'activité β bloquante adrénergique a été étudiée vis-à-vis des effets β1 (augmentation de la force contractile du myocarde) et des effets P2 (diminution de la pression artérielle disstolique) de l'isoprénaline administrée par voie intraveineuse.
(§5) On calcule le pourcentsge d'inhibition des effets β1 et des effets β2 de l'isoprénaline en fonction des doses (mg.kg I.V.) des différents exemples.
(§6) Les exemples sont injectés dans le veine saphène aux doses (exprimées en base) de: 0,0003 0,001 0,003 0,01 0,1 1,0 et 4,0 ou 8,0 mg.kg-1.

[2] = tested on: effets β2 (diminution de la pression artérielle diastolique) de l'isoprénaline; assay: β-blocking activity: inhibition of the β2 effects of intravenous isoprenaline in anaesthetised dogs; assay type: in vivo, chiens; conditions: dog; for inhibition at 0.001 mg/kg / inhibition at 0.003 mg/kg / inhibition at 0.01 mg/kg / inhibition at 0.1 mg/kg: Canis lupus familiaris, iv, inhibition given with negative sign, read-out: % d'inhibition des effets β2^⊕ de l'Isoprénaline; for inhibition at 0.001 mg/kg: 0,001 mg/kg I.V.; for inhibition at 0.003 mg/kg: 0,003 mg/kg I.V.; for inhibition at 0.01 mg/kg: 0,010 mg/kg I.V.; for inhibition at 0.1 mg/kg: 0,100 mg/kg I.V.
Description: as §1, §2, §3, §4, §5, §6

[3] = tested on: rat génétiquement hypertendu: Rat OKAMOTO; assay: Antihypertensive activity in spontaneously hypertensive rats (tail-cuff systolic pressure and heart rate after oral dosing); assay type: in vivo
Description: Des rats mâles âgés de 13 à 21 semaines présentant une hypertension spontanée génétiquement transmissible (souche OKAMOTO provenance IFFA CREDO) sont placés dans une enceinte thermostatée à 38°C. Les rats sont laissés en situation libre. La pression artérielle est mesurée par un sphygmomanomètre Narco Biosystem. Un manchon est placé à la base de la queue et un détecteur enregistre le pouls en aval du manchon. Celui-ci est gonflé jusqu'à suppression du pouls il est ensuite progressivement dégonflé. La pression mesurée à la reprise des battements cardiaques est la pression artérielle systolique. On calcule la fréquence cardiaque à partir de l'enregistrement du pouls artériel. Les produits à étudiar sont mis en suspension el administrés par voie orale sous un volume de 1 ml pour 100 g de poids corporel. Les mesures sont répétées à intervalles réguliers.
Les valeurs moyennes avant traitement pour les différents lots de rats sont pour la pression artérielle systolique de 190 à 200 mmHg et pour la fréquence cardiaque de 305 à 350 battements par minute.
Le tableau III ci-après donne la moyenne des variations de la pression systolique (mmHg) de la fréquence cardisque (battements/minute) et les écarts type à la moyenne obtenus 1 heure 3 heures et 5 heures après administration orale.

[4] = 0.01 mg.kg^-1 voie intraveineuse
[5] = 0.1 mg.kg^-1 voie intraveineuse
[6] = 1.0 mg.kg^-1 voie intraveineuse
[7] = 8.0 mg.kg^-1 voie intraveineuse

Structure (SMILES): CC(C)(C)NCC(O)COc1ccc(NC(=O)Cc2ccsc2)cc1C#N (centres unmarked) [exemple 9, 1-[2-cyano 4-(3-thiénylacétamido)phénoxy] 3-terbutylamino 2-propanol]
- Pourcentages d'inhibition des effets β1 de l'Isoprénaline ([1]; 0.001 mg.kg^-1 voie intraveineuse): 22%
- Pourcentages d'inhibition des effets β1 de l'Isoprénaline ([1]; 0.003 mg.kg^-1 voie intraveineuse): 74%
- Pourcentages d'inhibition des effets β1 de l'Isoprénaline [1, 4]: 91%
- Pourcentages d'inhibition des effets β1 de l'Isoprénaline [1, 5]: 100%
- Pourcentages d'inhibition des effets β1 de l'Isoprénaline [1, 6]: 100%
- Pourcentages d'inhibition des effets β1 de l'Isoprénaline [1, 7]: 100%
- inhibition at 0.001 mg/kg [1]: -22%
- inhibition at 0.003 mg/kg [1]: -74%
- inhibition at 0.01 mg/kg [1]: -91%
- inhibition at 0.1 mg/kg [1]: -100%
- Pourcentages d'inhibition des effets β2 de l'Isoprénaline [2, 4]: 8%
- Pourcentages d'inhibition des effets β2 de l'Isoprénaline [2, 5]: 42%
- Pourcentages d'inhibition des effets β2 de l'Isoprénaline [2, 6]: 100%
- Pourcentages d'inhibition des effets β2 de l'Isoprénaline [2, 7]: 100%
- inhibition at 0.001 mg/kg [2]: 0%
- inhibition at 0.003 mg/kg [2]: 0%
- inhibition at 0.01 mg/kg [2]: -8%
- inhibition at 0.1 mg/kg [2]: -42%
- Fréquence cardiaque Δ (battements/min) T+1 heure m (sm) ([3]; 64 mg.kg^-1 V.O): +27 (11) battements/min
- Pression systolique Δ (mmHg) T+1 heure m (sm) ([3]; 64 mg.kg^-1 V.O): -16 (4) mmHg
- Fréquence cardiaque Δ (battements/min) T+3 heures m (sm) ([3]; 64 mg.kg^-1 V.O): +13 (13) battements/min
- Pression systolique Δ (mmHg) T+3 heures m (sm) ([3]; 64 mg.kg^-1 V.O): -25 (8) mmHg
- Fréquence cardiaque Δ (battements/min) T+5 heures m (sm) ([3]; 64 mg.kg^-1 V.O): +13 (13) battements/min
- Pression systolique Δ (mmHg) T+5 heures m (sm) ([3]; 64 mg.kg^-1 V.O): -38 (6) mmHg

Structure (SMILES): CC(C)(C)NCC(O)COc1ccc(NC(=O)Cc2cccs2)cc1Br (centres unmarked) [exemple 39, 1-[2-bromo 4-(2-thiénylacétamido)phénoxy] 3-terbutylamino 2-propanol]
- inhibition at 0.001 mg/kg [1]: -11%
- inhibition at 0.003 mg/kg [1]: -65%
- inhibition at 0.01 mg/kg [1]: -89%
- inhibition at 0.1 mg/kg [1]: -100%
- inhibition at 0.001 mg/kg [2]: 0%
- inhibition at 0.003 mg/kg [2]: 0%
- inhibition at 0.01 mg/kg [2]: -5%
- inhibition at 0.1 mg/kg [2]: -49%
- Fréquence cardiaque Δ (battements/min) T+1 heure m (sm) ([3]; 128 mg.kg^-1 V.O): +47 (15) battements/min
- Pression systolique Δ (mmHg) T+1 heure m (sm) ([3]; 128 mg.kg^-1 V.O): -33 (9) mmHg
- Fréquence cardiaque Δ (battements/min) T+3 heures m (sm) ([3]; 128 mg.kg^-1 V.O): +56 (4) battements/min
- Pression systolique Δ (mmHg) T+3 heures m (sm) ([3]; 128 mg.kg^-1 V.O): -34 (11) mmHg
- Fréquence cardiaque Δ (battements/min) T+5 heures m (sm) ([3]; 128 mg.kg^-1 V.O): +47 (4) battements/min
- Pression systolique Δ (mmHg) T+5 heures m (sm) ([3]; 128 mg.kg^-1 V.O): -43 (9) mmHg
